# Source: PubChem BioAssay AID1963966 (Molecular Pharmacology Branch, DTP, NCI, 2024)
# Tested on: 935938-334-R-J1-PDC spheroids with HUVEC/MSC, viability
# Experiment: Anticancer human tumor 935938-334-R-J1-PDC patient-derived small intestine adenocarcinoma cell line growth inhibition [PI3K]
# Conditions: for viability, T/C: stronger effect = lower value
# Excerpt: Combinatorial screen of targeted agents with the PI3K inhibitors inavolisib, alpelisib, duvelisib, and copanlisib in multi-cell type tumor spheroids
# A high-throughput screen of multi-cell type tumor spheroids was designed to identify active combinations of targeted small molecules and PI3K pathway inhibitors. Complex spheroids include a stromal component modeled by human endothelial cells (HUVEC) and fibroblasts modeled by human mesenchymal stem cells (MSCs). The concentration ranges selected for each drug and investigational agent were based upon clinically achievable concentrations if the clinical Cmax of the agent was known.
# Compounds. The drugs and investigational agents: inavolisib (NSC800729), alpelisib (NSC765974), duvelisib (NSC772469), copanlisib (NSC816437), ipatasertib (NSC767898), afuresertib (NSC778305), talazoparib (NSC767125), sapanisertib (NSC764658), selumetinib (NSC741078), tovorafenib (DAY101, NSC766906), vemurafenib (NSC761431), ravoxertinib (NSC781343), sotorasib (NSC818433), MRTX1133 (NSC 836407), abemaciclib (NSC 768073), palbociclib (NSC758247), venetoclax (NSC 766270), SY5609 (NSC837396), enzalutamide (NSC755605), and darolutamide (NSC825331), were obtained from the National Cancer Institute (NCI) Developmental Therapeutics Program Chemical Repository. The FDA-approved anticancer drug set is available from the NCI Developmental Therapeutics Program. […] The stock solutions were prepared in dimethyl sulfoxide (DMSO, Sigma-Aldrich, St. Louis, MO, cat. D2650) at 800-fold the tested concentration and stored at -70 degrees C prior to their use. All drugs and investigational agents were tested over a range starting from a high concentration at or near the clinical Cmax and decreasing in half-log increments. If the clinical Cmax for an agent had not been determined, the highest concentration tested was 10 microM.
# Cell Culture. All cells were maintained in an incubator at 37 degrees C and 5% CO2 with 95% humidity. The PDC lines were cultured according to standard operating procedures established by the NCI PDMR (https://pdmr.cancer.gov/sops/default.htm). All PDCs were thawed and cultured in Matrigel-coated flasks prepared with a working solution of 1X Ham's F-12 nutrient mix, without supplementation (Invitrogen, Waltham, MA, cat. 11765054), 100 U/mL penicillin-streptomycin (Invitrogen, cat. 15140122), and 2.5% Matrigel (Corning Inc., Corning, NY, cat. 354248) for the first three passages. The 354836-022-R-J1-PDC, 475296-252-R-J1-PDC, and 997726-040-R-J2-PDC lines were cultured in 6A media, which includes advanced DMEM/F-12 (Thermo Fisher Scientific, cat. 12634028), 10 mM HEPES (Thermo Fisher Scientific, cat. 15630080), 1X GlutaMAX supplement (Thermo Fisher Scientific, cat. 35050061), 0.1 mg/mL primocin (InvivoGen, San Diego, CA, cat. ant-pm-2), 10% defined fetal bovine serum, heat inactivated (HyClone Laboratories Inc., Logan, UT, cat. SH30070.03HI), 50% L-WRN conditioned media (ATCC, cat. CRL-3276), 1.25 mM N-Acetyl-L-cysteine (Sigma-Aldrich, cat. A9165), 10 mM nicotinamide (Sigma-Aldrich, cat. N0636), 1X B-27 supplement (Thermo Fisher Scientific, cat. 17504044), 1X N-2 supplement (Thermo Fisher Scientific, cat. 17502048), and 10 microM Y-27632 dihydrochloride (Tocris Bioscience, Bristol, United Kingdom, cat. 1254). The 624824-186-R-J2-PDC line was cultured in 6C/Colon 1B media, which includes all 6A media components plus 50 ng/mL human EGF recombinant protein (Thermo Fisher Scientific, cat. PHG0311). […]
# [1] = curve of first compound, second compound 0.0316 µM
# [2] = curve of first compound, second compound 0.1 µM
# [3] = curve of first compound, second compound 0.316 µM
# [4] = curve of first compound, second compound 1 µM
# [5] = second compound 0.0316 µM, first compound 0.0316 µM
# [6] = second compound 0.0316 µM, first compound 0.1 µM
# [7] = second compound 0.0316 µM, first compound 0.316 µM
# [8] = second compound 0.0316 µM, first compound 1 µM
# [9] = second compound 0.0316 µM, first compound 3.16 µM
# [10] = second compound 0.0316 µM, first compound 10 µM
# [11] = second compound 0.1 µM, first compound 0.0316 µM
# [12] = second compound 0.1 µM, first compound 0.1 µM
# [13] = second compound 0.1 µM, first compound 0.316 µM
# [14] = second compound 0.1 µM, first compound 1 µM
# [15] = second compound 0.1 µM, first compound 3.16 µM
# [16] = second compound 0.1 µM, first compound 10 µM
# [17] = second compound 0.316 µM, first compound 0.0316 µM
# [18] = second compound 0.316 µM, first compound 0.1 µM
# [19] = second compound 0.316 µM, first compound 0.316 µM
# [20] = second compound 0.316 µM, first compound 1 µM
# [21] = second compound 0.316 µM, first compound 3.16 µM
# [22] = second compound 0.316 µM, first compound 10 µM
# [23] = second compound 1 µM, first compound 0.0316 µM
# [24] = second compound 1 µM, first compound 0.1 µM
# [25] = second compound 1 µM, first compound 0.316 µM
# [26] = second compound 1 µM, first compound 1 µM
# [27] = second compound 1 µM, first compound 3.16 µM
# [28] = second compound 1 µM, first compound 10 µM
# 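Note: compound exposure lasted seven days before viability was read.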
# 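Throughout, for viability, T/C: percent of vehicle DMSO treated spheroid viability so 100% = untreated.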
structure (smiles),measurement,setting,value
Cn1ncc(Cl)c1-c1cc(C(=O)NC(CN)Cc2cccc(F)c2)sc1Cl (configuration not stated) + CC(Nc1ccc2c(c1)OCCn1cc(N3C(=O)OCC3C(F)F)nc1-2)C(N)=O,IC50,"curve of first compound, second compound 0.00316 µM",> 10000 nM
same,IC50,"curve of first compound, second compound 0.01 µM",> 10000 nM
same,IC50,[1],> 10000 nM
same,IC50,[2],761 nM
same,IC50,[3],261 nM
same,IC50,[4],< 31.6 nM
same,"viability, T/C","second compound 0.00316 µM, first compound 0.0316 µM",107%
same,"viability, T/C","second compound 0.00316 µM, first compound 0.1 µM",69%
same,"viability, T/C","second compound 0.00316 µM, first compound 0.316 µM",60.8%
same,"viability, T/C","second compound 0.00316 µM, first compound 1 µM",57.9%
same,"viability, T/C","second compound 0.00316 µM, first compound 3.16 µM",56.5%
same,"viability, T/C","second compound 0.00316 µM, first compound 10 µM",116%
same,"viability, T/C","second compound 0.01 µM, first compound 0.0316 µM",104%
same,"viability, T/C","second compound 0.01 µM, first compound 0.1 µM",79.4%
same,"viability, T/C","second compound 0.01 µM, first compound 0.316 µM",53%
same,"viability, T/C","second compound 0.01 µM, first compound 1 µM",72.8%
same,"viability, T/C","second compound 0.01 µM, first compound 3.16 µM",40.9%
same,"viability, T/C","second compound 0.01 µM, first compound 10 µM",99.8%
same,"viability, T/C",[5],102%
same,"viability, T/C",[6],73.2%
same,"viability, T/C",[7],56.7%
same,"viability, T/C",[8],49.2%
same,"viability, T/C",[9],35.9%
same,"viability, T/C",[10],86%
same,"viability, T/C",[11],80.6%
same,"viability, T/C",[12],74.7%
same,"viability, T/C",[13],55.5%
same,"viability, T/C",[14],39.1%
same,"viability, T/C",[15],32.5%
same,"viability, T/C",[16],72.8%
same,"viability, T/C",[17],70.9%
same,"viability, T/C",[18],65.5%
same,"viability, T/C",[19],47.1%
same,"viability, T/C",[20],41%
same,"viability, T/C",[21],28.1%
same,"viability, T/C",[22],55.7%
same,"viability, T/C",[23],56.7%
same,"viability, T/C",[24],51.1%
same,"viability, T/C",[25],43.3%
same,"viability, T/C",[26],31.4%
same,"viability, T/C",[27],39%
same,"viability, T/C",[28],72.4%
Cn1ncc(Cl)c1-c1cc(C(=O)NC(CN)Cc2cccc(F)c2)sc1Cl (configuration not stated) + Cc1nc(NC(=O)N2CCCC2C(N)=O)sc1-c1ccnc(C(C)(C)C(F)(F)F)c1,IC50,[1],3010 nM
same,IC50,[2],743 nM
same,IC50,[3],776 nM
same,IC50,[4],266 nM
same,IC50,"curve of first compound, second compound 3.16 µM",144 nM
same,IC50,"curve of first compound, second compound 10 µM",< 31.6 nM
same,"viability, T/C",[5],83.4%
same,"viability, T/C",[6],87.5%
same,"viability, T/C",[7],61.9%
same,"viability, T/C",[8],67.4%
same,"viability, T/C",[9],38.1%
same,"viability, T/C",[10],52.8%
same,"viability, T/C",[11],100%
same,"viability, T/C",[12],77.2%
same,"viability, T/C",[13],60.4%
same,"viability, T/C",[14],45.9%
same,"viability, T/C",[15],37%
same,"viability, T/C",[16],24.3%
same,"viability, T/C",[17],90.7%
same,"viability, T/C",[18],67.3%
same,"viability, T/C",[19],60.6%
same,"viability, T/C",[20],45.1%
same,"viability, T/C",[21],43.3%
same,"viability, T/C",[22],26.8%
same,"viability, T/C",[23],48.2%
same,"viability, T/C",[24],62.4%
same,"viability, T/C",[25],42.6%
same,"viability, T/C",[26],46.9%
same,"viability, T/C",[27],35.7%
same,"viability, T/C",[28],23.8%
same,"viability, T/C","second compound 3.16 µM, first compound 0.0316 µM",53.5%
same,"viability, T/C","second compound 3.16 µM, first compound 0.1 µM",62.5%
same,"viability, T/C","second compound 3.16 µM, first compound 0.316 µM",34.4%
same,"viability, T/C","second compound 3.16 µM, first compound 1 µM",38%
same,"viability, T/C","second compound 3.16 µM, first compound 3.16 µM",27.1%
same,"viability, T/C","second compound 3.16 µM, first compound 10 µM",22.4%
same,"viability, T/C","second compound 10 µM, first compound 0.0316 µM",37.9%
same,"viability, T/C","second compound 10 µM, first compound 0.1 µM",35.8%
same,"viability, T/C","second compound 10 µM, first compound 0.316 µM",39.2%
same,"viability, T/C","second compound 10 µM, first compound 1 µM",39%
same,"viability, T/C","second compound 10 µM, first compound 3.16 µM",28.1%
same,"viability, T/C","second compound 10 µM, first compound 10 µM",26.7%
CC(Nc1ncnc2nc[nH]c12)c1cc2cccc(Cl)c2c(=O)n1-c1ccccc1 (configuration not stated),"viability, T/C",compound 0.0316 µM,99% [middle of 8 runs]
same,"viability, T/C",compound 10 µM,80.4% [middle of 8 runs]
same,IC50,"compound alone, run of 04/25/2023",> 10000 nM
